Results: BindingDB's records for patent US12371430 (Merck Patent, 2025)

Molecular target: ATR-interacting protein/Serine/threonine-protein kinase ATR (Homo sapiens, UniProt Q13535)
Experiment: ATR/ATRIP Kinase Assay
Method: The ATR/ATRIP enzymatic assay is performed as a TR-FRET-(HTRF™, Cisbio Bioassays) based 384-well assay. In a first step, purified human recombinant ATR/ATRIP (human ATR, full length, GenBank ID: NM_001184.3, and human ATRIP, full length, GenBank ID AF451323.1, co-expressed in a mammalian cell line) is incubated in assay buffer for 15 minutes at 22° C. with test compound at different concentrations or without test compound (as a negative control). The assay buffer contains 25 mM HEPES pH 8.0, 10 mM Mg(CH3COO)2, 1 mM MnCl2, 0.1% BSA, 0.01% Brij 35, and 5 mM dithiothreitol (DTT). An Echo 555 (Labcyte) is used for dispensing of compound solutions. […] The generation of phosphorylated p53 as a result of the ATR mediated reaction in the presence of ATP is detected by using specific antibodies [labeled with the fluorophores europium (Eu) as donor and d2 as acceptor (Cisbio Bioassays)] enabling FRET. […] Following signal development for 2 h the plates are analyzed in an EnVision (PerkinElmer) microplate reader using the TRF mode with laser excitation. Upon excitation of the donor europium at 340 nm the emitted fluorescence light of the acceptor d2 at 665 nm as well as from the donor Eu at 615 nm are measured. The amount of phosphorylated p53 is directly proportional to the ratio of the amounts of emitted light i.e. the ratio of the relative fluorescence units (rfu) at 665 nm and 615 nm. […]

ATR-interacting protein/Serine/threonine-protein kinase ATR, sequence (Q8WXE1 whole entry): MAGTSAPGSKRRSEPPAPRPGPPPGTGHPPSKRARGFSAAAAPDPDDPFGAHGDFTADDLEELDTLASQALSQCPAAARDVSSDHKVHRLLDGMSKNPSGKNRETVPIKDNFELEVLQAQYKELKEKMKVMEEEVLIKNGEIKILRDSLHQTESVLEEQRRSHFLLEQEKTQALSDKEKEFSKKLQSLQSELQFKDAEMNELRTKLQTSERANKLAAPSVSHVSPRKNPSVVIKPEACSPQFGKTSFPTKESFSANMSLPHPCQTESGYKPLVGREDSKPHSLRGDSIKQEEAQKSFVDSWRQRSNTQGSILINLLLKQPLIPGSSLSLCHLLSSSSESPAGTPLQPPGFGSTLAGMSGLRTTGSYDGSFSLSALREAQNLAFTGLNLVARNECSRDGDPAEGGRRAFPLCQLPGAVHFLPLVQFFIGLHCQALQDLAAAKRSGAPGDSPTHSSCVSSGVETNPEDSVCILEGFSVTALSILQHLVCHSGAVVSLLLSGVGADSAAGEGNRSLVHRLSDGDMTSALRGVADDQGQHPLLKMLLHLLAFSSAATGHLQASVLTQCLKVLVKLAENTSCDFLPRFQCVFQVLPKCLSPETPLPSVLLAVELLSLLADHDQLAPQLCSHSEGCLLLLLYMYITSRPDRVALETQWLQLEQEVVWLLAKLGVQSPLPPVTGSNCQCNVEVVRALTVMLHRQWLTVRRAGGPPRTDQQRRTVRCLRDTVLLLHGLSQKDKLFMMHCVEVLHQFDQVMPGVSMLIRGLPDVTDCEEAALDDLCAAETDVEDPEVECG
ATR-interacting protein/Serine/threonine-protein kinase ATR, sequence (Q13535 whole entry): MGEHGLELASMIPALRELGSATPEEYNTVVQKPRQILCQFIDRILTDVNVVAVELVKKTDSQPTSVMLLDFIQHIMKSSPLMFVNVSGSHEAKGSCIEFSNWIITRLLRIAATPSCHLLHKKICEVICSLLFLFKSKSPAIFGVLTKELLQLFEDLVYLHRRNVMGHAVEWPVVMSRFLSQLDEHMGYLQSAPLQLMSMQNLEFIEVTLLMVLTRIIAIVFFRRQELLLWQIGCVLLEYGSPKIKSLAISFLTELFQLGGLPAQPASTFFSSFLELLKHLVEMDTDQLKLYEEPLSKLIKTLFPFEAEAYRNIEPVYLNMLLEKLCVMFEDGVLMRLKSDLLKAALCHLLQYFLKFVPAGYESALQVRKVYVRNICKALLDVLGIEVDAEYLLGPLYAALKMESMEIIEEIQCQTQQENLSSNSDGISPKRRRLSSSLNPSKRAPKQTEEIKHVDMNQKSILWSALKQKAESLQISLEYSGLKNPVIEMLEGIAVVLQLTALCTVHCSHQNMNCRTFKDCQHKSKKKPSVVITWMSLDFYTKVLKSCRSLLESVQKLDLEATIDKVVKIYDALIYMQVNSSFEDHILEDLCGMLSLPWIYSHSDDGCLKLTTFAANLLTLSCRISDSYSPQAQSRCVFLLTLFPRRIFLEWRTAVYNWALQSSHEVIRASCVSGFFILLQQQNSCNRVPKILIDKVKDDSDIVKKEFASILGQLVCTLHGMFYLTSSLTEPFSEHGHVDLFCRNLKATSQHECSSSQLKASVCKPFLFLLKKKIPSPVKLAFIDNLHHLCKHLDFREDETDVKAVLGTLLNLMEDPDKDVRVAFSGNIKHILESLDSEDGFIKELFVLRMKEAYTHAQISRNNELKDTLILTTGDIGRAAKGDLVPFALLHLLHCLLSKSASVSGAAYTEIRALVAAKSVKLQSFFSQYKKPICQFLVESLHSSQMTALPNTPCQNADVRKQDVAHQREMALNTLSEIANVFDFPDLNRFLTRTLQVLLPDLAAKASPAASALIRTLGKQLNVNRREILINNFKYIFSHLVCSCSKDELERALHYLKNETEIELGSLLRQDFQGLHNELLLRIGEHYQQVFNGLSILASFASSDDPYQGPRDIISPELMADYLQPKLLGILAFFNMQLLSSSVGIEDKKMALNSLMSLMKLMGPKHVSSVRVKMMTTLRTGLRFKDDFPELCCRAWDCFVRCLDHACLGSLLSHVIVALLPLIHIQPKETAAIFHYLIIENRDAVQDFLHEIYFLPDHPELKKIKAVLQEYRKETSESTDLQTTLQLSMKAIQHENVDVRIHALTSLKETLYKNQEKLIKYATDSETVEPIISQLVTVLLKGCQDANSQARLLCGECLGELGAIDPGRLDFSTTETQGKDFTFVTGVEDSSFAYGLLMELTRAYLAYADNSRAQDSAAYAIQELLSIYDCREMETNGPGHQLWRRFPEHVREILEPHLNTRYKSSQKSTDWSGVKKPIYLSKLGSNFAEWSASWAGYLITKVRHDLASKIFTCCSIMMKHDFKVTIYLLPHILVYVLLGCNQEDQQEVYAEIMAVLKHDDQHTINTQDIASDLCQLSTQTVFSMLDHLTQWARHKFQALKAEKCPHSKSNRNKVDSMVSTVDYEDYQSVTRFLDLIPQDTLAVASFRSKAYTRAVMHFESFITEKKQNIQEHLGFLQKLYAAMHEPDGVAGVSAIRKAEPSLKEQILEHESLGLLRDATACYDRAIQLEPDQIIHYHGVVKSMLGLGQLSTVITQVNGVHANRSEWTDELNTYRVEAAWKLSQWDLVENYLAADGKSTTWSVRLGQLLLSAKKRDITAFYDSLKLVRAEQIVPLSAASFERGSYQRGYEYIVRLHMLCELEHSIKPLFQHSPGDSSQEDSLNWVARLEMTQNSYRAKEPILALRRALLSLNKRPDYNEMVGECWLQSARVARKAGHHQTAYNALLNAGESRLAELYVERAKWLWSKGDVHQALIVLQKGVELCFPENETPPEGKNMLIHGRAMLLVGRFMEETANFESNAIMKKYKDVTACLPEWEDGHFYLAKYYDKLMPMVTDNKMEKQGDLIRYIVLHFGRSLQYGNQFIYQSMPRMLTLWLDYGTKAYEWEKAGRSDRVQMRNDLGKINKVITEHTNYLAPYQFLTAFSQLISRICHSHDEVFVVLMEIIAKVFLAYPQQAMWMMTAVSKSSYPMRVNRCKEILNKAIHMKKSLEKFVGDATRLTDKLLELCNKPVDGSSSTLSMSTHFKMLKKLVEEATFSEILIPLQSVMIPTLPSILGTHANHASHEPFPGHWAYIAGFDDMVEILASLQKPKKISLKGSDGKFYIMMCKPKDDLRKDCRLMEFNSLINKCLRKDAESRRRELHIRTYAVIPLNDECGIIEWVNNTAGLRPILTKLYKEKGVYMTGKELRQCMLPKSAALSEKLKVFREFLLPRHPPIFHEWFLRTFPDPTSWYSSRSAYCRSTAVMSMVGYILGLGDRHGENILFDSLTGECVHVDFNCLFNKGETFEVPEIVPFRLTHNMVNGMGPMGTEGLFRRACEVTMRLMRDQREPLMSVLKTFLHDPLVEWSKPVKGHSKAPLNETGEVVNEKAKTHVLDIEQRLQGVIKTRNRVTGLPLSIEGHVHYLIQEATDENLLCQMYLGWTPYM

IC50: 0.8 nM
SMILES: C[C@@H]1COCCN1c1cc(C2CCS(=O)(=O)CC2)c2c(n1)c(-c1ccn[nH]1)nn2C [US12371430, Compound 82]
